Data on two compounds can be found in patent publication EP4567040A1, “CRYSTAL FORM OF FUSED TRICYCLIC DERIVATIVE AND PREPARATION METHOD” (Jiangsu Hengrui Pharmaceuticals Co., Ltd., priority 2022, dated 2024).

In data set [1] the test system is DPX2 (HepG2 cells were stably transfected with the human PXR gene and the fluorescent reporter gene) cells. Put plainly: Cell viability in the PXR induction assay (CellTiter-Fluor). It is filed as cell-based. How it is done: • 1. The potential of the test compounds to induce the activity of drug metabolism enzymes through in vitro activation of PXR was evaluated. […] […] Experimental procedures • 3.1. Preparation for plating • 1) 50 mL of FBS was added to 450 mL of cell culture medium. • 2) DPX2 cells were cultured in a T-75 culture flask in a 37 °C, 5% CO2 incubator with 95% relative humidity. When covering 80-90% of the bottom of the culture flask, the cells were digested. • 3) The top layer of cells cultured in the T-75 culture flask was washed with 8 mL of PBS, and the PBS was pipetted off. The cells were digested with 3 mL of pancreatin at 37 °C for about 5 min or until they were floating in the pancreatin. 10 mL (excessive) of a serum-containing culture medium was added to neutralize the pancreatin. • 4) The cell suspension was transferred to a conical-bottomed centrifuge tube and centrifuged at 120 g for 10 min. The cells were suspended in the plating culture medium, and the concentration was adjusted to 4 × 10^5 cells/mL. The diluted cells were added to a 96-well cell culture plate at 100 µL/well. The culture plate was placed in an incubator and incubated at 37 °C for 24 h before the PXR activation experiment. • 3.2. […] […] The final concentration of DMSO was 0.1%. 1 µL of DMSO was added to a well containing 1 mL of pre-incubated culture medium as a solvent control. • 2) The cell culture plate was taken out of the incubator, and the culture medium was discarded. The test compounds and the positive compound were added to appropriate wells at 100 µL/well, and each group was tested in duplicate. The cell plate was placed in an incubator and incubated for 24 h. • 3.3. Quantification of PXR activation • 1) After […] of compound treatment, PXR activation was quantified for the culture. • 2) The CellTiter-Fluor™ cell viability assay kit and the One-Glo Luciferase reagent were equilibrated to room temperature. The GF-AFC (10 µL) substrate was added to Assay Buffer (10 mL) to form a 2× reagent, and the reagent was then diluted to 1× with 10 mL of PBS; the ONE-Glo substrate was added to the ONE-Glo Luciferase Assay buffer. • 3) The cell culture plate was taken out of the incubator, and the culture medium in each well was discarded. The plate was washed twice with PBS. The 1× CellTiter-Fluor™ reagent was added to a sterilized reagent reservoir, and 50 µL was transferred to each well using a multi-channel pipette. The plate was incubated at 37 °C for 30 min. • 4) The 96-well cell plate was taken out of the incubator, and the fluorescence in each well was measured using a microplate reader put in the fluorescence mode at an excitation wavelength of 400 nm and an emission wavelength of 505 nm. • 5) The ONE-Glo reagent was poured into a reagent reservoir, and then 50 µL was transferred to each well using a multi-channel pipette. The reagent was gently and well mixed, and the mixture was incubated and well mixed at room temperature for 5 min. After the incubation, the luminescence in each well was measured using a luminometer.
The calculation formula for cell viability: Percent cell viability (%) = I(sample)/(I(vehicle) × 100 [formula]
I(sample) represents the fluorescence intensity of the sample, and I(vehicle) represents the fluorescence intensity of 0.1% DMSO to cells.

A short description of data set [2]: Hygroscopicity study of free-state crystal forms (DVS). It is filed as physicochemical. As to the method:
Testing was performed using Surface Measurement Systems advantage 2, at 25 °C, with the humidity changing from 50% -95%-0%-95%-50%RH, in steps of 10%. The criterion was that each gradient mass change dM/dT is less than 0.002%, TMAX 360 min, two cycles.
Surface Measurement Systems intrinsic DVS was adopted. At 25 °C, the crystal forms were tested in a humidity range of 0%-95%, with increments of 10%. The criterion was that each gradient mass change dM/dT is less than 0.002%, TMAX 360 min, two cycles.

Data set [3] can be described thus: Influencing factor stability study of crystal forms. The class given is physicochemical. As to the method: Example 50. Influencing Factor Stability Study of Crystal Forms Free-state samples were spread out, left to stand in open flasks, and subjected to 30-day stability tests under light exposure (4500 Lux), high temperature (40 °C and 60 °C), and high humidity (RH 75% and RH 92.5%) conditions.

Data set [4] in a line: Long-term/accelerated stability of crystal forms. It is filed as physicochemical. Conditions: for Purity%: sealed in aluminum foil bag; for Crystal form: after standing up to 6 months. As to the method:
Free-state samples were sealed in aluminum foil bags and left to stand under 25 °C/60% RH and 40 °C/75% RH conditions to test their stability.

Consider `CO[C@H]1/C=C/O[C@@]2(C)Oc3c(C)c(O)c4c(O)c(c(/C=N/N5CCN(C)CC5)c(O)c4c3C2=O)NC(=O)/C(C)=C\C=C\[C@H](C)[C@H](O)[C@@H](C)[C@@H](O)[C@@H](C)[C@H](OC(C)=O)[C@@H]1C` [Rifampicin, reference compound], for which the “Cell viability (%)” value is on record as 103.39% in data set [1] (compound concentration 0.0195 µM) and 93.07% in data set [1] (compound concentration 20.0 µM).
`C[C@H]1COc2c(-c3nc(N[C@@H]4CCOC[C@H]4O)ncc3Cl)cc(F)c3nc(C(C)(C)O)n1c23` [Crystal form E, (3S,4R)-4-((5-chloro-4-((S)-8-fluoro-2-(2-hydroxypropan-2-yl)-3-methyl-3,4-dihydro-5-oxa-1,2a-diazaacenaphthylen-6-yl)pyrimidin-2-yl)amino)tetrahydro-2H-pyran-3-ol]: in data set [2] (DVS, 25 °C, 0.0% RH-80.0% RH), the “0.0% RH-80.0% RH (hygroscopicity, mass change)” value is reported as 3.45%. For the same compound, the Crystal form entry in data set [2] (crystal form after DVS test), in data set [4] (25 °C/60% RH) and in data set [4] (40 °C/75% RH) was “No change” each time. Also, the physical stability result in data set [3] (30-day influencing factor experiments) is “good physical stability”. The Purity% in data set [3] (40 °C, 7 days, open flask) is reported as 99.9%; in data set [3] (40 °C, 14 days, open flask), 99.8%; in data set [3] (40 °C, 30 days, open flask), 99.8%; in data set [3] (60 °C, 7 days, open flask) it was 99.9%; in data set [3] (60 °C, 14 days, open flask) it was 99.9%; in data set [3] (60 °C, 30 days, open flask) it was 99.9%. Moreover, the Purity% in data set [3] (75% RH, 7 days, open flask) stood at 99.9%; in data set [3] (75% RH, 14 days, open flask), 99.8%; in data set [3] (75% RH, 30 days, open flask), 99.8%; in data set [3] (92.5% RH, 7 days, open flask), 99.9%; in data set [3] (92.5% RH, 14 days, open flask) it was 99.8%; in data set [3] (92.5% RH, 30 days, open flask) it was 99.8%. Also, the Purity% in data set [3] (Initial, 0 days) was 99.9%; in data set [3] (Light exposure (4500 Lux), 7 days, open flask) it was 99.6%; in data set [3] (Light exposure (4500 Lux), 14 days, open flask), 99.3%; in data set [3] (Light exposure (4500 Lux), 30 days, open flask), 98.7%; in data set [4] (25 °C/60% RH, 1 month) it was 99.9%; in data set [4] (25 °C/60% RH, 2 months), 99.9%. The Purity% in data set [4] (25 °C/60% RH, 3 months) was 99.9%; in data set [4] (25 °C/60% RH, 6 months), 99.9%; in data set [4] (25 °C/60% RH, 14 days), 99.9%; in data set [4] (25 °C/60% RH, Initial) it was 99.9%; in data set [4] (40 °C/75% RH, 1 month) it was 99.9%; in data set [4] (40 °C/75% RH, 2 months), 99.9%. Also, the Purity% is reported as 99.9% in data set [4] (40 °C/75% RH, 3 months); 99.9% in data set [4] (40 °C/75% RH, 6 months); 99.9% in data set [4] (40 °C/75% RH, 14 days); 99.9% in data set [4] (40 °C/75% RH, Initial). Also, the chemical stability result in data set [3] (high temperature and high humidity conditions, 30-day influencing factor experiments) was “good chemical stability”. Moreover, in data set [4] (long-term accelerated conditions for 6 months), the “physical stability and chemical stability” value is “good physical stability and chemical stability”.
